These results are taken from US9084423B2, “Inhibition of bacterial biofilms with imidazole derivatives” (North Carolina State University, priority 2007, dated 2015).

The test system of experiment [1] is planktonic P. aeruginosa PAO1. As to the kind of experiment: Planktonic growth (growth curves, colony counts), PAO1. Type of experiment: cell-based, Pseudomonas aeruginosa. Conditions: growth curves and/or colony counts, presence vs absence of compound, at IC50 or as stated. From the text:
To answer the question of whether the compounds were antibiotics or true inhibitors of biofilm formation, we tested the ability of both compounds to inhibit growth of planktonic P. aeruginosa. Growth was quantitated by measuring optical density at 600 nm. […]

The test system of experiment [2] is P. aeruginosa strain PAO1. As to the kind of experiment: Static biofilm inhibition assay (crystal violet), PAO1. Format: cell-based, Pseudomonas aeruginosa. Conditions: for IC50: inhibition of biofilm formation, crystal violet, 24 hours. How it is done:
Each compound was assayed for the ability to inhibit the formation of P. aeruginosa biofilms. […] We employed a standard crystal violet reporter assay to assess for the formation of biofilms. Briefly, P. aeruginosa strain PAO1 was allowed to form biofilms in a multi-well plate in the absence or presence of our compounds. Planktonic (or free growing) bacteria were then removed, wells washed vigorously, and crystal violet added. Crystal violet stains the remaining bacteria which, following ethanol solubilization, can be quantitated by spectrophotometry (A540).
(§1) An overnight culture of the bacterial strain being screened against was subcultured at an OD600 of 0.1 into the media used (listed below with strain) and then pipetted into test tubes along with a predetermined concentration of our compound of interest. Test tubes were then poured into tilted Petri dishes and 100 μL of media, strain and compound were then transferred into 96-well PVC microtiter plates. These microtiter plates were then covered, wrapped in Saran™ Wrap polyethylene film (S.C. Johnson, Racine, Wis.) and allowed to incubate at 37° C. for 24 hours. After that time, the medium was discarded and the plates were thoroughly washed with water. The remaining biofilm that was formed during incubation was stained with 100 μL of a 0.1% crystal violet solution and allowed to incubate at room temperature for 30 minutes. After 30 minutes, the crystal violet was discarded and washed thoroughly again with water. The remaining crystal violet that had stained the biofilm in the inside walls of the 96-well PVC plates was solubilized with 200 μL of 95% ethanol. The quantification of biofilm formation was accomplished by transferring 125 μL of the ethanol solution into a polystyrene microtiter dish, which was read by spectrophotometry (A540). After the background has been subtracted from each row, a percent inhibition can be calculated by dividing the amount of crystal violet in wells that contained compound by the amount of crystal violet in wells that contained bacteria only. Each concentration reported during the course of this study was repeated two to five times with each of those biofilm inhibition assays being done in 6 replicates each.
(§2) An overnight culture of the wild type strain was subcultured at an OD600 of 0.10 into LBNS along with a predetermined concentration of the small molecule to be tested for biofilm inhibition. Samples were then aliquoted (100 μL) into the wells of a 96-well PVC microtiter plate. The microtiter dishes were covered and sealed before incubation under stationary conditions at 37° C. for 24 hours. After that time, the medium was discarded and the plates thoroughly washed with water. The wells were then inoculated with a 0.1% aqueous solution of crystal violet (100 μL) and allowed to stand at ambient temperature for 30 minutes. Following another thorough washing with water the remaining stain was solubilized with 200 μL of 95% ethanol. Biofilm inhibition was quantitated by measuring the OD540 for each well by transferring 125 μL of the ethanol solution into a fresh polystyrene microtiter dish for analysis.
(§3) To examine each compound's ability to inhibit the formation of Pseudomonas aeruginosa biofilms, PAO1 and PA14 were employed as the target bacterial strains using a crystal violet reporter assay. G. A. O'Toole, R. Kolter, Mol. Microbiol. 1998, 28, 449. All compounds were initially screened at 500 μM for anti-biofilm activity.
An overnight culture of the wild type strain was subcultured at an OD600 of 0.10 into LBNS along with a predetermined concentration of the small molecule to be tested for biofilm inhibition. Samples were then aliquoted (100 μL) into the wells of a 96-well PVC microtiter plate. The microtiter dishes were covered and sealed before incubation under stationary conditions at 37° C. for 24 hours, After that time, the medium was discarded and the plates thoroughly washed with water. […]

Experiment [3] relates to planktonic P. aeruginosa PA14. As to the kind of experiment: Planktonic growth (growth curves, colony counts), PA14. Conditions: growth curves and/or colony counts, presence vs absence of compound, at IC50 or as stated. Format: cell-based, Pseudomonas aeruginosa.
For experiment [4], the system named is P. aeruginosa PA14. Put plainly: Static biofilm inhibition assay (crystal violet), PA14. Format: cell-based, Pseudomonas aeruginosa. Conditions: for IC50: PA14, inhibition of biofilm formation, crystal violet, 24 hours. How it is done: as §1, §2, §3
as §2, with “for 24 hours, After that” for “for 24 hours. After that”, “violet (100 pt) and allowed” for “violet (100 μL) and allowed”

In experiment [5] the test system is pre-formed PAO1 biofilms. Put plainly: Static biofilm dispersion assay, PAO1. Type of experiment: cell-based. Conditions: Pseudomonas aeruginosa, 24-hour pre-formed biofilm, 24 hours treatment. How it is done: (§4) One aspect associated with small molecule modulation of biofilm development is the ability to disperse a pre-formed biofilm. There have only been a limited number of examples in the literature of molecules that disperse bacterial biofilms. Banin et al., Appl. Environ. Microbiol., 2006, 72, 2064. L. M. Junker and J. Clardy, Antimicrob, Agents Ch., 2007, 51, 3582. Boles et al., Mol. Microbiol., 2005, 57, 1210. TAGE was assayed for its ability to disperse pre-formed PAO1 and PA14 biofilms. Each bacterial strain was allowed to form biofilms in a microtiter well for 24 hours in the absence of compound. […] After 24 hours, all the wells were washed vigorously to remove media and planktonic bacteria, and then were stained with crystal violet to quantify the amount of remaining biofilm Representative PAO1 results are depicted in FIG. 6.
(§5) An overnight culture of either PAO1 or PA14 was subcultured at an OD600 of 0.5 into LBNS and aliquoted (100 μL) into the wells of a 96-well PVC microtiter plate. […] The quantification of remaining biofilm was accomplished by transferring 125 μL of the ethanol solution into a polystyrene microtiter dish, which was read by spectrophotometry (A540). Percent dispersion was calculated in the same manner as percent biofilm inhibition described previously in this experimental section. […]

In experiment [6] the test system is pre-formed PA14 biofilms. As to the kind of experiment: Static biofilm dispersion assay, PA14. Type of experiment: cell-based. Conditions: Pseudomonas aeruginosa, 24-hour pre-formed biofilm, 24 hours treatment. The protocol:
as §4, §5

For experiment [7], the system named is Acinetobacter Baumannii (ATCC 19606). As to the kind of experiment: Static biofilm inhibition assay (crystal violet), A. baumannii. Conditions: ATCC19606, inhibition of biofilm formation, 24 hours, read-out: IC50 value for inhibition against A. baumannii. Type of experiment: cell-based. How it is done: as §1, with “The remaining crystal violet that had stained the biofilm in the inside walls of the 96-well PVC plates was solubilized with 200 μL of 95% ethanol.” left out, “Each concentration reported during the course of this study was repeated two to five times with each of those biofilm inhibition assays being done in 6 replicates each.” left out

Experiment [8] concerns PDO300. Put plainly: Planktonic growth (growth curves, colony counts), PDO300. Type of experiment: cell-based, Pseudomonas aeruginosa. Conditions: growth curves and/or colony counts.
For experiment [9], the system named is existing biofilms of P. aeruginosa. Put plainly: Biofilm dispersion, P. aeruginosa (Example 6). Conditions: range of concentrations, FIG. 21. Format: cell-based, Pseudomonas aeruginosa. The protocol:
(§6) From a clinical perspective, the ability to disperse an established biofilm can be an important consideration, because a physician is typically faced with treating an established or chronic biofilm infection. DHS was assessed for its ability to disperse existing biofilms of P. aeruginosa, A. baumannii, and B. bronchiseptica. Each bacterial strain was allowed to form biofilms for 24 hours in the absence of compound. At the end of 24 hours, the media and planktonic bacteria were removed and the remaining biofilm was treated either with media alone or media containing DHS.

For experiment [10], the system named is A. baumannii. As to the kind of experiment: Planktonic growth (growth curves, colony counts), A. baumannii. Type of experiment: cell-based, Acinetobacter baumannii. Conditions: growth curves and/or colony counts. How it is done: Screens of the three compounds were performed against A. baumannii and B. bronchiseptica.
Experiment [11] relates to PDO300, mucoid strain of P. aeruginosa. Put plainly: Static biofilm inhibition assay (crystal violet), PDO300. Type of experiment: cell-based. Conditions: Pseudomonas aeruginosa, 24 h, read-out: IC50 against PDO300.
Procedure: PDO300 was employed to assay if TAGE would inhibit the formation of mucoid biofilms. PDO300 is a well-characterized mucoid strain of P. aeruginosa that is genotypically identical to PAO1 except for the mucA mutation that converts the bacterium to the mucoid phenotype (Mathee et al., Microbiology, 1999, 145, 1349), PDO300 biofilms were allowed to develop in a 96-well plate in the absence or presence of TAGE. After 24 hours, the media and planktonic bacteria were removed, the wells were washed vigorously, and crystal violet was added. Crystal violet stains the bacterial biofilm that forms on the inside wall of the well at the air/liquid interface, which, following ethanol solubilization, can be quantitated by spectrophotometry (A540) (O'Toole et al., Mol. Microbiol., 1998, 30, 295).
An overnight culture of the bacterial strain being screened against was subcultured at an OD600 of 0.1 into the media used (listed below with strain) and then pipetted into test tubes along with a predetermined concentration of our compound of interest. Test tubes were then poured into tilted Petri dishes and 100 μL of media, strain and compound were then transferred into 96-well PVC microtiter plates. […] The quantification of biofilm formation was accomplished by transferring 125 μL of the ethanol solution into a polystyrene microtiter dish, which was read by spectrophotometry (A540). […]
In experiment [12] the test system is existing biofilms of B. bronchiseptica. As to the kind of experiment: Biofilm dispersion, B. bronchiseptica. Format: cell-based, Bordetella bronchiseptica. Conditions: range of concentrations, FIG. 21. How it is done:
as §6

Experiment [13] concerns A. baumannii biofilms. As to the kind of experiment: Biofilm dispersion, A. baumannii. Type of experiment: cell-based, Acinetobacter baumannii. Conditions: range of concentrations, FIG. 21. The protocol:
Finally, each of the TAGE derivatives were assayed for their ability to disperse pre-formed biofilms. […] While not wishing to be bound by any particular theory, it is hypothesized that the failure of these derivatives to effectively disperse biofilms, in contrast to TAGE, might be due to impeded diffusion through the biofilm matrix.
as §6

Experiment [14] deals with B. bronchiseptica biofilms (strain Rb50). As to the kind of experiment: Static biofilm inhibition assay (crystal violet), RB50. Format: cell-based. Conditions: Bordetella bronchiseptica, inhibition of biofilm formation, 24 hours. The protocol:
as §1, with “The remaining crystal violet that had stained the biofilm in the inside walls of the 96-well PVC plates was solubilized with 200 μL of 95% ethanol.” left out, “Each concentration reported during the course of this study was repeated two to five times with each of those biofilm inhibition assays being done in 6 replicates each.” left out

The mark [15] stands for this setting: listed as DHS 23, hydrochloride.
The mark [16] stands for this setting: listed as DHS (7), hydrochloride.

Each structure is given as a SMILES string.

Broadly, the IC50 is the concentration at which inhibition is half-maximal. For orientation: EC50 means the concentration at which the effect is half-maximal. Low readings indicate higher potency in that assay, high ones lower potency in that assay. `CCCCCCCCCCCCNC(=O)CCCc1c[nH]c(N)n1.Cl` [Compound 12, 4-(2-amino-1H-imidazol-4-yl)-N-dodecyl-butyramide hydrochloride]: the “microbicidal effect on PAO1 planktonic growth (in words)” value in [1] was “remained unchanged”. Also, the IC50 in experiment [2] (Pseudomonas aeruginosa, PAO1) was 2.84 µM; in [4] (Pseudomonas aeruginosa), 2.26 µM. Further, the “microbicidal effect on PA14 planktonic growth (in words)” value in experiment [3] is given as “remained unchanged”. The EC50 worked out at 32.8 ± 4.7 µM in [5] and 21.3 ± 3.9 µM in [6].

As usually defined, the inhibition is the change of the read-out against control, counted positive when it falls. Regarding `Cl.Cn1c(C(=O)NCCCc2c[nH]c(N)n2)cc(Br)c1Br` [Compound 23, 4,5-dibromo-1-methyl-pyrrole-2-carboxylic acid [3-(2-amino-1H-imidazol-4-yl)-propyl]-amide hydrochloride], the IC50 came to 110 µM in experiment [7]; 51 ± 9 µM in experiment [2] (Pseudomonas aeruginosa, PAO1); 115 µM in experiment [11]; 111 ± 8 µM in experiment [4] (Pseudomonas aeruginosa); 238 µM in [14]. Moreover, the “bactericidal activity against PDO300 (in words)” value in experiment [8] is recorded as “lacked significant bactericidal activity”. For the same compound, in experiment [9], the “dispersion of existing P. aeruginosa biofilms (in words)” value is given as “able to successfully disperse”. Also, the “microbicidal effect on PAO1 planktonic growth (in words)” value is recorded as “no reduction” in experiment [1] (setting [15]) and “not due to a bactericidal effect” in experiment [1] (setting [16]). The “microbicidal effect on A. baumannii planktonic growth (in words)” value in experiment [10] was “no microbicidal effects”. For the same compound, the “% Biofilm Inhibition at 500 μM vs PAO1” value in [2] (500 μM, hydrochloride) was over 95%. For the same compound, the inhibition at 500 µM in experiment [2] (Pseudomonas aeruginosa, PAO1) is over 95%; in experiment [4] (Pseudomonas aeruginosa, PA14, 24 h), over 95%. The “fold more active than both TAGE and CAGE” value in experiment [2] (from IC50 values against PAO1 and PA14) is “approximately 2 fold”. Moreover, the “microbicidal effect on PA14 planktonic growth (in words)” value was “no reduction” in experiment [3] (setting [15]) and “not due to a bactericidal effect” in experiment [3] (setting [16]). For the same compound, the “dispersion of existing B. bronchiseptica biofilms (in words)” value in experiment [12] is on record as “able to successfully disperse”. Further, the “% Biofilm Inhibition at 500 μM vs PA14” value in experiment [4] (500 μM, hydrochloride) was over 95%. Moreover, the “dispersion of existing A. baumannii biofilms (in words)” value in experiment [13] is “able to successfully disperse”.
